# Source: patent US20150057325A1, “COMPOUNDS CAPABLE OF MODULATING/PRESERVING ENDOTHELIAL INTEGRITY FOR USE IN PREVENTION OR TREATMENT OF ACUTE TRAUMATIC COAGULOPATHY AND RESUSCITATED CARDIAC ARREST” (priority 2012, published 2015)
# Legend:
# [1] = in vivo; cited from earlier work
# [2] = tested on: whole blood platelet aggregation; test: Whole blood impedance aggregometry (Multiplate) in healthy volunteers infused with flolan; format: in vivo, human; conditions: 6 healthy volunteers, 4 ng/kg/min i.v., after 60 and 120 min infusion
# Method: (§1) Six healthy volunteers were administered flolan (Prostacycline) intravenously at a dose of 4 ng/kg/min for 2 h. Blood samples for whole blood viscoelastical assay (Thrombelastography [TEG]) and whole blood platelet aggregation (Multiplate) were obtained before infusion of Flolan, after 60 min infusion of Flolan and after 120 min infusion of Flolan.
# Whole blood impedance aggregometry was analyzed by the Multiple Platelet function Analyzer (MultiPlate® analyzer). Analysis employing various platelet agonists: ASPItest (activation by arachidonic acid), COLtest (activation by collagen through the collagen receptor), TRAPtest (activation by TRAP-6 stimulates the thrombin receptor on the platelet surface and ADPtest (activation by ADP stimulates platelet activation by the ADP receptors).
# MultiPlate continuously records platelet aggregation. The increase of impedance by the attachment of platelets onto the Multiplate sensors is transformed to arbitrary aggregation units (AU) and plotted against time as depicted in FIG. 2.
# [3] = Blood pressure and heart rate in healthy volunteers during intravenous flolan infusion; format: in vivo, human; conditions: 4 ng/kg/min i.v. for 2 h, any time point
# Method: as §1
# whole blood = test: Whole blood viscoelastical assay (Thrombelastography, TEG) in healthy volunteers infused with flolan; format: in vivo, human; conditions: 6 healthy volunteers, 4 ng/kg/min i.v., after 60 and 120 min infusion; kaolin
# Method: Six healthy volunteers were administered flolan (Prostacycline) intravenously at a dose of 4 ng/kg/min for 2 h. Blood samples for whole blood viscoelastical assay (Thrombelastography [TEG]) and whole blood platelet aggregation (Multiplate) were obtained before infusion of Flolan, after 60 min infusion of Flolan and after 120 min infusion of Flolan. With regard to the TEG assay this was performed as recommended by the manufacturer and 340 μl are mixed with 20 μl CaCl 0.2 M (final concentration 11.1 mM in the cup) and kaolin at 37° C. after which the haemostatic activity is recorded as depicted in FIG. 1.
# endothelium = test: Plasma biomarkers (ELISA) of endothelial, glycocalyx, necrosis and anticoagulation status in healthy volunteers after Flolan infusion; format: in vivo, human; conditions: 8 healthy volunteers, 4 ng/kg/min i.v. for 2 h
# Method: Eight healthy volunteers were administered Flolan® (Prostacyclin) intravenously at a dose of 4 ng/kg/min for 2 h. Blood samples were analyzed for plasma biomarkers indicative of endothelial cell (thrombomodulin, PAI-1) and glycocalyx (syndecan-1) activation and/or damage, cellular necrosis (histone-complexed DNA fragments, HMGB1) and anticoagulation (protein C, antithrombin, TFPI) at the following time points: Before the infusion (0 h), immediately after ceasing the infusion (2 h) and then 4 h, 5 h, 6 h, 8 h and 24 h after starting the infusion. The concentration of the individual biomarkers in plasma was analyzed by commercially available ELISA kits according to the manufactures recommendations. Paired t-tests with p-values <0.05 were considered significant.
# [4] = human, in vivo
# Method: Ninety-four critically ill patients admitted to the intensive care unit (ICU) underwent haemofiltration with or without concomitant Flolan (prostacycline) treatment. None of the patients were suffering from Acute Traumatic Coagulopathy nor from sequelae to cardiac arrest. Flolan was administered in a low dose in the filters to prevent these from clotting and consequently there was only a minor spill over of Flolan to the systemic circulation. The patients were retrospectively reviewed.
# However, patients in the flolan group were more severely ill as evaluated by a lower platelet count at start of hemofiltration, a higher frequency of severe thrombocytopenia, a higher frequency of DIC diagnoses, a higher maximum SOFA score and a higher SOFA score at hemofiltration initiation as compared to the patients receiving non-flolan.
smiles,measurement,setting,value
"CC#CCC(C)[C@H](O)/C=C/[C@@H]1[C@H]2c3cccc(CCCC(=O)O)c3O[C@H]2C[C@H]1O (mixture of isomers) [Beraprost, beraprost]",half time,[1],35 to 40 min
"CCCCC[C@H](O)CC[C@@H]1[C@H]2Cc3cccc(OCC(=O)O)c3C[C@H]2C[C@H]1O [Treprostinil, treprostinil]",half time,[1],less than 4 hours
"CC#CCC(C)[C@H](O)/C=C/[C@@H]1[C@H]2C/C(=C/CCCC(=O)O)C[C@H]2C[C@H]1O (some centres unmarked) [Iloprost, iloprost]",half time,[1],20 to 30 min
"CCCCC[C@H](O)/C=C/[C@@H]1[C@H]2C/C(=C/CCCC(=O)O)O[C@H]2C[C@H]1O [Flolan, epoprostenol sodium]","Multiplate values (ASPI, COL, ADP, TRAP), baseline vs. samples during infusion",[2],no significant difference
same,"blood pressure, change from baseline",[3],did not change
same,"heart rate, change from baseline",[3],did not change
same,"TEG values (R, Angle, MA), baseline vs. samples during infusion",whole blood,No significant difference
same,cell necrosis biomarker HMGB1,endothelium,did not influence
same,cell necrosis biomarker histone-complexed DNA fragments,endothelium,did not influence
same,circulating level of PAI-1,endothelium,declined
same,circulating level of TFPI (affected or not),endothelium,did not
same,circulating level of antithrombin,endothelium,decreased
same,glycocalyx shedding (syndecan-1),endothelium,did not induce or influence
same,HMGB1 at 5 h,"endothelium; 5 h after starting infusion, p=0.056",tendency towards a reduction
same,circulating level of thrombomodulin,endothelium; effect continuing for several hours after ceasing infusion,marked decrease
same,circulating level of Protein C,endothelium; in the hours after ceasing infusion,decreased
same,Platelet count (difference before vs. after haemofiltration),[4],+14
same,haemostatic competence as evaluated by transfusion requirements,[4],does not negatively influence
same,total transfusion requirements and specifically of FFP during hemofiltration,[4],increased
same,half time,[1],0.5 to 3 min
